In publication PMC2862727 (Molecular immunology, 2010):
“Also recorded” adds a separate entry of the source.

Key:
[1] = test system: β-AR binding sites on THP-1 cell membranes; assay: Saturation radioligand binding of 125I-CYP on crude THP-1 cell membranes; design: species or system human; details: THP-1 membranes, n = 6
[2] = test system: IL-1β production in THP-1 cells; assay: IL-1β immunoblot of THP-1 cell lysates; details: for effect of inhibitor or antagonist alone on IL-1β generation: absence of receptor agonist, data not shown
[3] = test system: specific ^125I-CYP binding sites on THP-1 membranes; details: one-site binding model, ref Talmadge, et al., 1993; cited from earlier work
[4] = biological target: β-AR mediating cAMP production in THP-1 cells (Homo sapiens, UniProt P08588); assay: Iso-induced cAMP production in THP-1 cells, Schild regression analysis; format: cell-based; details: inhibition of Iso mediated cAMP production in THP-1 cells, n = 4
β-AR mediating cAMP production in THP-1 cells, sequence (P08588 whole entry): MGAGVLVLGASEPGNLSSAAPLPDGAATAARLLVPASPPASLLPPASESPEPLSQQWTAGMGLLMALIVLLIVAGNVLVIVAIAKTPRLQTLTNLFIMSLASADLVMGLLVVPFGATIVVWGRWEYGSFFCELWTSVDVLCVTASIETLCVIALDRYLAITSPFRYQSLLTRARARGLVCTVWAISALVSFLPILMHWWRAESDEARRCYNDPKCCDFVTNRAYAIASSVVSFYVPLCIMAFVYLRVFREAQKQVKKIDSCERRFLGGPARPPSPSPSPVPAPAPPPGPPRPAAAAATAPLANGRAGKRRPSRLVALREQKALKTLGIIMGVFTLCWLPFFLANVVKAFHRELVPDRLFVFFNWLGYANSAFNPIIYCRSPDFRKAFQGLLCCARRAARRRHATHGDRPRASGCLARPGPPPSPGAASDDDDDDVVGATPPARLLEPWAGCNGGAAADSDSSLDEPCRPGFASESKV

[5] = test system: inflammatory mediators secreted by THP-1 cells; assay: Cytokine antibody array of conditioned media from THP-1 cells; format: cell-based, human; details: 2 h, n = 3
[6] = test system: secreted IL-1β from THP-1 cells; assay: ELISA of IL-1β secreted into media of THP-1 cells; format: cell-based, human; details: for secreted IL-1β in media: 2 h
[7] = test system: IL-1β production in primary human monocytes; assay: IL-1β immunoblot of primary human monocyte lysates; format: cell-based; details: individual treatment (30 ng/mL LPS or 0.1 μM Iso alone), n = 3
[8] = individual treatment (30 ng/mL LPS or 0.1 μM Iso alone), n = 6, control 1.6 ± 0.5 pg/mL
[9] = 30 ng/mL LPS and 0.1 μM Iso simultaneously

Q: With `CC(C)(C)NCC(O)COc1cccc2[nH]c(C#N)c(I)c12` (single isomer, unassigned; (-)) [^125I-CYP, (–)3-[^125I]iodocyanopindolol] as the compound, how does the Kd ([1]; read-out: equilibrium dissociation constant (Kd) of 125I-CYP, saturation binding) read?
A: 0.0301 ± 0.0051 nM

Q: Which “effect of inhibitor or antagonist alone on IL-1β generation” value (“effect of inhibitor or antagonist alone” for short) ([2]; THP-1 cells) does the source give for `Cc1ccc(OCC(O)C(C)NC(C)C)c2c1CCC2` (racemic) [ICI 118,551, erythro-dl-1-(7-methylindan-4-yloxy)-3-isopropylaminobutan-2-ol] here?
A: no qualitative changes

Q: And the Ki [3]?
A: 46 nM

Q: And the Schild regression slope [4]?
A: 1.0 ± 0.1

Q: With `Cl.Cl.O=S(=O)(NCCNCC=Cc1ccc(Br)cc1)c1cccc2cnccc12` [H-89, N-[2-(p-bromocinnamylamino)ethyl]-5-isoquinolinesulfonamide dihydrochloride] as the compound, how does the “effect of inhibitor or antagonist alone” value ([2]; THP-1 cells) read?
A: did not alter responses

Q: What about the “IL-1β produced, fold over LPS” value ([2]; THP-1 lysates, 100 nM H-89 pre-incubation then 30 ng/mL LPS plus 0.1 μM Iso (Fig 7), n = 6) of the same compound?
A: 1.4±0.1 fold over LPS

Q: Which “number of binding sites (Bmax)” value ([1]; labeled by 125I-CYP) does the source give for `CC(C)(C)NCC(O)COc1cccc2[nH]c(C#N)c([125I])c12` (single isomer, unassigned; (-)) [^125I-CYP, (–)3-[^125I]iodocyanopindolol] here?
A: 341 ± 77 fmol/mg protein

Q: For `Cn1cc(C(F)(F)F)nc1-c1ccc(OCC(O)CNCCOc2ccc(O)c(C(N)=O)c2)cc1` (stereo not shown) [CGP 20712A, 1-(2-((3-carbamoyl-4-hydroxy)phenoxy)ethylamino)-3-(4-(1-methyl-4-trifluoromethyl-2-imidazoylyl)phenoxy)-2-propanol methanesulfonate], which “effect of inhibitor or antagonist alone” value ([2]; THP-1 cells) is on record?
A: no qualitative changes

Q: What does the source list for lipopolysaccharide [LPS]?
A: IL-1β produced, fold over basal ([2]; THP-1 lysates, individual treatment (30 ng/mL LPS or 0.1 μM Iso alone), 2 hr, n = 5): 12.1 ± 3.9 fold; expression of secreted IL-1β and TNF-α versus control ([5]; 30 ng/mL LPS only): qualitative increase; secreted IL-1β in media [6, 8]: 16.9 ± 2.6 pg/mL; IL-1β produced, fold over basal [7]: 3.4 ± 1.8 fold

Q: Which “synergistic modulation of LPS mediated production of IL-1β” value ([2]; THP-1 cells, LPS plus Iso versus LPS alone) does the source give for `CC(C)NCC(O)c1ccc(O)c(O)c1` (stereo not shown) [Iso, isoproterenol] here?
A: > 4 fold

Q: What about the “LPS mediated TNF-α expression versus LPS alone” value [5, 9] of the same compound?
A: qualitative loss; also recorded: decreases

Q: What about the “soluble IL-1β versus LPS stimulation alone” value [5, 9] of the same compound?
A: qualitative increase

Q: What about the “expression pattern of inflammatory mediators versus basal” value ([5]; 0.1 μM Iso only) of the same compound?
A: no differences in the expression pattern

Q: What about the “difference in IL-1β released into media between LPS alone and LPS plus Iso” value [6] of the same compound?
A: > 4 fold

Q: What about the “secreted IL-1β in media” value ([6]; 0.1 μM Iso plus 30 ng/mL LPS, n = 6) of the same compound?
A: 76.3 ± 24.7 pg/mL

Q: And the “secreted IL-1β in media” value [6, 8]?
A: 4.8 ± 1.4 pg/mL
